The text below walks through data of patent US20140179664A1, “Heterocyclyl Pyrimidine Analogues As JAK Inhibitors” (Cellzome Limited, priority 2011, published 2014).

SMILES strings stand for the structures.

One test concerns the target T1, JAK3 (Homo sapiens, UniProt P52333).
T1 construct: endogenous in cells; host or cells: Molt4 (ATCC CRL-1582) and Ramos (ATCC CRL-1596), mixed lysate 1:2
T1 sequence (P52333 1-1124): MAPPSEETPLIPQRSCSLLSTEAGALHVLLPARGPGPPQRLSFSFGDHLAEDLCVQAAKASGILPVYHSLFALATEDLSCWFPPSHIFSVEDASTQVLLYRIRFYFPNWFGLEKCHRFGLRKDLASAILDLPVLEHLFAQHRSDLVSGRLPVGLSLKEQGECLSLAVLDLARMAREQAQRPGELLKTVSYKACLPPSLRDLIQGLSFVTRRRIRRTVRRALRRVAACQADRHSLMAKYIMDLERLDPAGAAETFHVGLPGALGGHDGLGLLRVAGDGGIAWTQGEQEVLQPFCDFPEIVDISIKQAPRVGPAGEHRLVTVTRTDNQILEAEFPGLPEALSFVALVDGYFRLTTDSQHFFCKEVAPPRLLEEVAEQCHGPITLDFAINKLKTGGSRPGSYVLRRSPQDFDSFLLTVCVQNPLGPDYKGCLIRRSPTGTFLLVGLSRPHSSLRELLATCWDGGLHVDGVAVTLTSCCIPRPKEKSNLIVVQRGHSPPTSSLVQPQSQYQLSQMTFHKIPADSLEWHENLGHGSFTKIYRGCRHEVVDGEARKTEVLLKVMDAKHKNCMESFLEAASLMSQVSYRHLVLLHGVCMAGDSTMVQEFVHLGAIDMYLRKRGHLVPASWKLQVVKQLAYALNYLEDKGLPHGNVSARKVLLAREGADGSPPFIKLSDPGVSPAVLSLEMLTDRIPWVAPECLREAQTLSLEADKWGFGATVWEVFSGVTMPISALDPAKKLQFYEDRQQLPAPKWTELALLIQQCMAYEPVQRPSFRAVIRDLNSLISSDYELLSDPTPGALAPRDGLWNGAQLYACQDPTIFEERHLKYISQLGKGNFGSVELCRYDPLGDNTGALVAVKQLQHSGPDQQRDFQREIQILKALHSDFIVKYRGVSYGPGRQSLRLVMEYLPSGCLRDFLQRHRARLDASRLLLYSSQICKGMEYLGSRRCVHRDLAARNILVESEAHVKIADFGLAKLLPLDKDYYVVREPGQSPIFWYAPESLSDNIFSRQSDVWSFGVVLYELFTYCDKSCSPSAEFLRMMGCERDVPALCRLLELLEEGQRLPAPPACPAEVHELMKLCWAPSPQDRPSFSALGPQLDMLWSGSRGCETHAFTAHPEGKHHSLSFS
As to the kind of experiment: Kinobeads assay, JAK3. Type of test: binding. To be noted: mixed Molt4/Ramos lysate, read-out: Inhibition values (IC50) JAK3. A digest of the protocol:
(§1)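 IC50s come from capture competition: compound at various concentrations versus an immobilized aminopyrido-pyrimidine ligand for kinases in 1:2 Molt4/Ramos lysate (10 mg/mL), 3 h in a cold room. Captured JAK-family kinases were measured by specific-antibody dot blot with Odyssey infrared detection.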

For another test, the target named is T2, TYK2 (Homo sapiens, UniProt P29597).
T2 construct: endogenous in cells; host or cells: Molt4 (ATCC CRL-1582) and Ramos (ATCC CRL-1596), mixed lysate 1:2
T2 sequence (P29597 whole entry): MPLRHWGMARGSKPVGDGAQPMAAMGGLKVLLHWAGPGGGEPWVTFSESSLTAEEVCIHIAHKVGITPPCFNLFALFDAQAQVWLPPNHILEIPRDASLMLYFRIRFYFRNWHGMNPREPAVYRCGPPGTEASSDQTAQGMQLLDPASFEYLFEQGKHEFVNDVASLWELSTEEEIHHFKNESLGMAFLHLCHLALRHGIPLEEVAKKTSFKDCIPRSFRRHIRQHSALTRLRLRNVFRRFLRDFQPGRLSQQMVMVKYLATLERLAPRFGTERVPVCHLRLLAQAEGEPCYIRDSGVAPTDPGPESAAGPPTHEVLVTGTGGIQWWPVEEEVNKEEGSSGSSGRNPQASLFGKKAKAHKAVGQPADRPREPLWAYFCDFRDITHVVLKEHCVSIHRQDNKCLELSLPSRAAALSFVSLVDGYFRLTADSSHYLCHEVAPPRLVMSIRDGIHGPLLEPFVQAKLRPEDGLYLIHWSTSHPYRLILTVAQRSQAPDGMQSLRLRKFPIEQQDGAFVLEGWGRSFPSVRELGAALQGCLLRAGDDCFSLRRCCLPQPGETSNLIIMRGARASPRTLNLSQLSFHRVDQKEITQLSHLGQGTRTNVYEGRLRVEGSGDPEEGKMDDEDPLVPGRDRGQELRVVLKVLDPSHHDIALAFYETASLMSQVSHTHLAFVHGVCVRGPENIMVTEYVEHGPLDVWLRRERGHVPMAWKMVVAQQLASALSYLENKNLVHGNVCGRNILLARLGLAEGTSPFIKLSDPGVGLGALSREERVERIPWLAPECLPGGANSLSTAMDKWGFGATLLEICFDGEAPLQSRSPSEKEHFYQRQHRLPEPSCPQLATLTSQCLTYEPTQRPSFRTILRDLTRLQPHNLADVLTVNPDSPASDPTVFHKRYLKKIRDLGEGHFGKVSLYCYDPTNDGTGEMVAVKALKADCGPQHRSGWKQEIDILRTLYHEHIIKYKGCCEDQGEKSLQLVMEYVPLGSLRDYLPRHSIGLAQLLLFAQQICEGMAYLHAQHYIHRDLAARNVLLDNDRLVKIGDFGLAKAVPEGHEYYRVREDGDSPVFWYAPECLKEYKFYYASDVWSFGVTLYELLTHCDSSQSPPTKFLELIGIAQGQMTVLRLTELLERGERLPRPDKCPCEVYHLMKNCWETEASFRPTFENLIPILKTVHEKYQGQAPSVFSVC
Kind of test: Kinobeads assay, TYK2. In kind it is binding. The settings on record: mixed Molt4/Ramos lysate, read-out: Inhibition values (IC50) TYK2. The procedure, abridged: as §1

A word on the IC50: it is the concentration at which inhibition is half-maximal. In the case of `Cn1cc(Nc2ncc(F)c(N[C@H](CO)c3ccccc3)n2)cn1` [Compound 3], the values for the IC50 on JAK3 and at TYK2 were 100 to 1000 nM and 1000 to 10000 nM, respectively.
In the case of `Cn1cc(Nc2ncc(Cl)c(N[C@H](CO)c3cccc(F)c3)n2)cn1` [Compound 85], the IC50 was less than 100 nM on JAK3 and 100 to 1000 nM at TYK2.
As to `OCCn1cc(Nc2ncc(Cl)c(N[C@H](CO)c3cccc(F)c3)n2)cn1` [Compound 86], the half-inhibitory concentration (IC50) on JAK3 is less than 100 nM; on TYK2 it was 100 to 1000 nM.
In the case of `NC(=O)Cn1cc(Nc2ncc(Cl)c(N[C@H](CO)c3cccc(F)c3)n2)cn1` [Compound 87], the IC50 at JAK3 is less than 100 nM; on TYK2, 100 to 1000 nM.
On the same counts, the results for `OC[C@@H](Nc1nc(Nc2cn[nH]c2)ncc1Cl)c1cccc(F)c1` [Compound 88] are less than 100 nM and 100 to 1000 nM.
Consider `CN(C)CCNC(=O)Cn1cc(Nc2ncc(Cl)c(N[C@H](CO)c3ccccc3)n2)cn1` [Compound 89], for which the IC50 at JAK3 was less than 100 nM; on TYK2, 100 to 1000 nM.
For `CN(C)CCCNC(=O)Cn1cc(Nc2ncc(Cl)c(N[C@H](CO)c3ccccc3)n2)cn1` [Compound 90], in that order: less than 100 nM and 100 to 1000 nM.
For `Cn1cc(Nc2ncc(Cl)c(N[C@H](CO)c3cccnc3)n2)cn1` [Compound 91], in that order: less than 100 nM and 100 to 1000 nM.
On the same counts, the results for `OCCn1cc(Nc2ncc(Cl)c(N[C@H](CO)c3cccnc3)n2)cn1` [Compound 92] are less than 100 nM and 100 to 1000 nM.
Consider `OCCn1cc(Nc2ncc(Cl)c(NC(CO)c3cccc(Br)c3)n2)cn1` (centres unmarked) [Compound 93], for which the IC50 on JAK3 and on TYK2 was 100 to 1000 nM throughout.
